# Key:
# HFD SD rat model = experiment: HFD SD rat model, biochemical, organ weight ratio, liver lipid and liver pathology; assay type: in vivo; conditions: for H/B (heart/body weight ratio): model 0.24 ± 0.02, normal 0.28 ± 0.02; for L/B (liver/body weight ratio): model 5.1 ± 0.75, normal 2.8 ± 0.26
# Description: SD rat study: 58 SD rats ♂ aged 5–6 weeks were purchased from Beijing Huafukang Biotechnology Co., Ltd. 9 animals were kept with a food control diet as normal control, and the other 49 animals were fed 40% fat, 1.25% cholesterol and 0.5% sodium cholate (HFD, D12109C, SYSE BIO, Changzhou, China) as a model group. […] Animals in the normal and model groups were given solvent by oral gavage. All drugs, including solvent, were administered consecutively for 4 weeks and once a day. After sacrifice, blood was collected and serum was isolated for the AST, ALT, TG, TC, LDL-c, and HDL-c test, and livers and hearts were weighed to calculate the liver weight ratio and the heart weight ratio, respectively. The right lobe of the liver of each rat was harvested for the TG and TC test (A110-1-1 and A111-1-1, Nanjing Jiancheng Institute of Bioengineering, Nanjing, China) according to the manufacturer's instructions. The left lobe of the liver was collected for hematoxylin-eosin staining (H and E staining) to quantify liver steatosis, inflammation, and ballooning.
# (§1) The liver samples were fixed in 10% formalin and embedded in paraffin using standard methods. The 4 μm paraffin sections were then assessed for liver histology by H and E staining and liver fibrosis by sirius red staining. The stained sections were panoramic scanned with a NanoZoomer Digital Pathology scanner (S210, Hamamatsu, Japan), and then observed with different visual fields at different magnifications, and scored for different liver lobes in the sections. The total NAS score represents the sum of the scores for steatosis (0–3), lobular inflammation (0–3), and ballooning (0–2), and ranges from 0–8 [30]. VIS7.0 software was used to analyze the area of liver fibrosis in the panoramic scanning SR staining sections, and the percentage of liver fibrosis area in the whole section area was calculated.
# WD + CCL4 mouse model = experiment: WD + CCL4 mouse model, biochemical, liver weight ratio and liver pathology; assay type: in vivo, C57/B6 mouse; conditions: for LDL-c / TG / HDL-c / TC / CK activity / AST / ALT: WD + CCL4 mouse serum; for LDL-c / TG / HDL-c / TC / CK activity / AST / ALT / L/B (liver/body weight ratio): mean ± SD; for LDL-c: model 1.1 ± 0.35, normal 0.43 ± 0.04; for TG: model 1.2 ± 0.34, normal 0.91 ± 0.14; for HDL-c: model 1.5 ± 0.25, normal 2.0 ± 0.08; for TC: model 4.1 ± 0.97, normal 3.0 ± 0.10; for CK activity: model 345 ± 268, normal 334 ± 193; for AST: model 10245 ± 4955, normal 116 ± 71; for ALT: model 14003 ± 4205, normal 54 ± 15; for L/B (liver/body weight ratio): model 3.5 ± 0.27, normal 3.5 ± 0.27
# Description: C57/B6 mouse study: 61 C57/B6 mice ♂ aged 6–7 weeks were purchased from Beijing Vital River Laboratory Animal Technology Co., Ltd. Six animals were kept with a chow diet as normal control, and the other 55 animals were fed 60% fat diet (Western diet, D12492, Research diet) as the model group. […] Animals in the normal and model groups were given solvent by oral gavage. All drugs, including solvent, were administered consecutively for 4 weeks and once a day. After sacrifice, blood was collected and serum was isolated for the AST, ALT, TG, TC, LDL-c, HDL-c, and CK tests, and the livers were weighed to calculate the liver weight ratio. The left lobe of the liver of each mouse was collected for hematoxylin-eosin staining (H and E staining) and sirius red staining.
# as §1
# [1] = Observation of diarrhea in treated animals; assay type: in vivo, rodents; conditions: animal studies
# [2] = HFD SD rat, 5 mg/kg (L) oral once a day 4 weeks, mean ± SD
# [3] = HFD SD rat, 15 mg/kg (CS27109-M, MGL-3196) oral once a day 4 weeks, mean ± SD
# [4] = HFD SD rat, 45 mg/kg (H) oral once a day 4 weeks, mean ± SD
# [5] = 3 mg/kg (L) oral once a day 4 weeks
# [6] = 10 mg/kg (CS27109-M, MGL-3196) oral once a day 4 weeks
# [7] = 30 mg/kg (H) oral once a day 4 weeks
# [8] = WD + CCL4 mouse, 4 weeks, MGL3196 10 mg/kg, CS27109 high-dose (30 mg/kg), vs model
smiles,measurement,setting,value
N#Cc1nn(-c2cc(Br)c(Oc3n[nH]c(=O)c4ccccc34)c(Br)c2)c(=O)[nH]c1=O [CS27109],TG,"HFD SD rat model; HFD SD rat serum, 45 mg/kg (H) oral once a day 4 weeks, mean ± SD, model 0.82 ± 0.73, normal 0.53 ± 0.34",0.20 ± 0.08 mmol/L
same,HDL-c,"HFD SD rat model; HFD SD rat serum, 45 mg/kg (H) oral once a day 4 weeks, mean ± SD, model 1.2 ± 0.44, normal 1.1 ± 0.13",1.0 ± 0.30 mmol/L
same,LDL-c,"HFD SD rat model; HFD SD rat serum, 45 mg/kg (H) oral once a day 4 weeks, mean ± SD, model 9.7 ± 6.1, normal 0.28 ± 0.06",0.59 ± 0.32 mmol/L
same,TC,"HFD SD rat model; HFD SD rat serum, 45 mg/kg (H) oral once a day 4 weeks, mean ± SD, model 20 ± 13, normal 1.5 ± 0.20",2.3 ± 0.65 mmol/L
same,ALT,"HFD SD rat model; HFD SD rat serum, 45 mg/kg (H) oral once a day 4 weeks, mean ± SD, model 166 ± 95, normal 32 ± 6.8",89 ± 50 U/L
same,AST,"HFD SD rat model; HFD SD rat serum, 45 mg/kg (H) oral once a day 4 weeks, mean ± SD, model 365 ± 212, normal 103 ± 21",253 ± 131 U/L
same,liver steatosis score (H and E),"HFD SD rat model; HFD SD rat, 4 weeks, CS27109 5-45 mg/kg dose-dependent, MGL3196 15 mg/kg, vs model",lessened steatosis
same,liver inflammation score (H and E),"HFD SD rat model; HFD SD rat, 4 weeks, CS27109 5-45 mg/kg, MGL3196 15 mg/kg, vs model","dose-dependently reduced liver inflammation, but without a significant effect"
same,NAS score,"HFD SD rat model; HFD SD rat, 4 weeks, high dose CS27109 (45 mg/kg) only, vs model",decreased the NAS score
same,H/B (heart/body weight ratio),HFD SD rat model; [2],0.27 ± 0.03%
same,L/B (liver/body weight ratio),HFD SD rat model; [2],4.0 ± 0.52 %
same,H/B (heart/body weight ratio),HFD SD rat model; [3],0.28 ± 0.02 %
same,L/B (liver/body weight ratio),HFD SD rat model; [3],4.1 ± 0.56 %
same,H/B (heart/body weight ratio),HFD SD rat model; [4],0.27 ± 0.02%
same,L/B (liver/body weight ratio),HFD SD rat model; [4],3.9 ± 0.54 %
same,LDL-c,WD + CCL4 mouse model; [5],0.40 ± 0.10 mmol/L
same,TG,WD + CCL4 mouse model; [5],1.2 ± 0.34 mmol/L
same,HDL-c,WD + CCL4 mouse model; [5],0.85 ± 0.24 mmol/L
same,TC,WD + CCL4 mouse model; [5],2.3 ± 0.40 mmol/L
same,CK activity,WD + CCL4 mouse model; [5],331 ± 386 U/L
same,AST,WD + CCL4 mouse model; [5],13447 ± 6633 U/L
same,ALT,WD + CCL4 mouse model; [5],19162 ± 4012 U/L
same,LDL-c,WD + CCL4 mouse model; [6],0.37 ± 0.07 mmol/L
same,TG,WD + CCL4 mouse model; [6],1.2 ± 0.19 mmol/L
same,HDL-c,WD + CCL4 mouse model; [6],0.94 ± 0.25 mmol/L
same,TC,WD + CCL4 mouse model; [6],2.2 ± 0.36 mmol/L
same,CK activity,WD + CCL4 mouse model; [6],201 ± 95 U/L
same,AST,WD + CCL4 mouse model; [6],4804 ± 1121 U/L
same,ALT,WD + CCL4 mouse model; [6],10478 ± 2131 U/L
same,LDL-c,WD + CCL4 mouse model; [7],0.39 ± 0.11 mmol/L
same,TG,WD + CCL4 mouse model; [7],1.2 ± 0.18 mmol/L
same,HDL-c,WD + CCL4 mouse model; [7],1.2 ± 0.31 mmol/L
same,TC,WD + CCL4 mouse model; [7],2.4 ± 0.48 mmol/L
same,CK activity,WD + CCL4 mouse model; [7],280 ± 147 U/L
same,AST,WD + CCL4 mouse model; [7],3660 ± 1208 U/L
same,ALT,WD + CCL4 mouse model; [7],7832 ± 2422 U/L
same,liver inflammation score (H and E),WD + CCL4 mouse model; [8],notable reduction
same,liver steatosis score (H and E),WD + CCL4 mouse model; [8],notable reduction
same,liver ballooning score (H and E),"WD + CCL4 mouse model; WD + CCL4 mouse, 4 weeks, only low-dose CS27109 (3 mg/kg), vs model",significantly reduced liver ballooning
same,area of liver fibrosis (sirius red),"WD + CCL4 mouse model; WD + CCL4 mouse, 4 weeks, three doses of CS27109 (3, 10, 30 mg/kg), MGL3196 10 mg/kg, vs model",prominently reduced the area of the fibrosis
same,L/B (liver/body weight ratio),"WD + CCL4 mouse model; WD + CCL4 mouse, 3 mg/kg (L) oral once a day 4 weeks",3.3 ± 0.40%
same,L/B (liver/body weight ratio),"WD + CCL4 mouse model; WD + CCL4 mouse, 10 mg/kg (CS27109-M, MGL-3196) oral once a day 4 weeks",3.2 ± 0.68%
same,L/B (liver/body weight ratio),"WD + CCL4 mouse model; WD + CCL4 mouse, 30 mg/kg (H) oral once a day 4 weeks",3.2 ± 0.79%
same,diarrhea in treated animals,[1],rarely observed

# — paper PMC9943626, “CS27109, A Selective Thyroid Hormone Receptor-β Agonist Alleviates Metabolic-Associated Fatty Liver Disease in Murine Models” (International Journal of Endocrinology, 2023)
